Results published in ChEMBL document CHEMBL1123796, “New antitumor agents containing the anthracene nucleus” (1987).
Each block holds one compound with its values, some of them ahead of it.

Tests used:
Assay type in all cases: functional
[1] = Tested in vitro for inhibitory activity of human tumor cell growth against HEC 1A endometrial tumor, by using clonogenic assays.; conditions: read-out: ID50 (the source's name)
RPMI-8226 [2] = assay: In vitro inhibition of human 8226 myeloma tumor cell line growth.; conditions: read-out: ID50 (the source's name)
[3] = In vitro inhibition of human UACC-66 ovarian tumor cell line growth.; conditions: read-out: ID50 (the source's name)
WiDr = assay: Tested in vitro for inhibitory activity of human tumor cell growth against WIDR colon tumor, by using clonogenic assays.; conditions: read-out: ID50 (the source's name)
RPMI-8226 [4] = assay: Effect on DNA synthesis was determined by incorporation of radioligand into 8226 human myeloma cells at a concentration of 10 ug/mL (*: >1 log cell kill)
L1210 [5] = assay: Effect on protein synthesis was determined by incorporation of radioligand into L1210 murine leukemia at a concentration of 1 ug/mL. (*: >50% cell kill); conditions: Mus musculus
L1210 [6] = assay: Effect on protein synthesis was determined by incorporation of radioligand into L1210 murine leukemia at a concentration of 10 ug/mL (*: >1 log cell kill); conditions: Mus musculus
L1210 [7] = assay: Effect on RNA synthesis was determined by incorporation of radioligand into L1210 murine leukemia at a concentration of 0.1 ug/mL; conditions: Mus musculus
RPMI-8226 [8] = assay: Effect on RNA synthesis was determined by incorporation of radioligand into 8226 human myeloma cells at a concentration of 0.1 ug/mL
RPMI-8226 [9] = assay: Effect on DNA synthesis was determined by incorporation of radioligand into 8226 human myeloma cells at a concentration of 1 ug/mL. (*: >50% cell kill)
L1210 [10] = assay: Effect on DNA synthesis was determined by incorporation of radioligand into L1210 murine leukemia at a concentration of 10 ug/mL (*: >1 log cell kill); conditions: Mus musculus
L1210 [11] = assay: Effect on DNA synthesis was determined by incorporation of radioligand into L1210 murine leukemia at a concentration of 0.01 ug/mL; conditions: Mus musculus
RPMI-8226 [12] = assay: Effect on protein synthesis was determined by incorporation of radioligand into 8226 human myeloma cells at a concentration of 10 ug/mL (*: >1 log cell kill)
RPMI-8226 [13] = assay: Effect on RNA synthesis was determined by incorporation of radioligand into 8226 human myeloma cells at a concentration of 0.01 ug/mL
L1210 [14] = assay: Effect on RNA synthesis was determined by incorporation of radioligand into L1210 murine leukemia at a concentration of 1 ug/mL. (*: >50% cell kill); conditions: Mus musculus
RPMI-8226 [15] = assay: Effect on protein synthesis was determined by incorporation of radioligand into 8226 human myeloma cells at a concentration of 1 ug/mL. (*: >50% cell kill)
RPMI-8226 [16] = assay: Effect on RNA synthesis was determined by incorporation of radioligand into 8226 human myeloma cells at a concentration of 10 ug/mL (*: >1 log cell kill)
RPMI-8226 [17] = assay: Effect on protein synthesis was determined by incorporation of radioligand into 8226 human myeloma cells at a concentration of 0.1 ug/mL
RPMI-8226 [18] = assay: Effect on DNA synthesis was determined by incorporation of radioligand into 8226 human myeloma cells at a concentration of 0.1 ug/mL
L1210 [19] = assay: Effect on DNA synthesis was determined by incorporation of radioligand into L1210 murine leukemia at a concentration of 0.1 ug/mL; conditions: Mus musculus
L1210 [20] = assay: Effect on protein synthesis was determined by incorporation of radioligand into L1210 murine leukemia at a concentration of 0.01 ug/mL; conditions: Mus musculus
RPMI-8226 [21] = assay: Effect on DNA synthesis was determined by incorporation of radioligand into 8226 human myeloma cells at a concentration of 0.01 ug/mL
L1210 [22] = assay: Effect on RNA synthesis was determined by incorporation of radioligand into L1210 murine leukemia at a concentration of 10 ug/mL (*: >1 log cell kill); conditions: Mus musculus
L1210 [23] = assay: Effect on RNA synthesis was determined by incorporation of radioligand into L1210 murine leukemia at a concentration of 0.01 ug/mL; conditions: Mus musculus
L1210 [24] = assay: Effect on protein synthesis was determined by incorporation of radioligand into L1210 murine leukemia at a concentration of 0.1 ug/mL; conditions: Mus musculus
RPMI-8226 [25] = assay: Effect on protein synthesis was determined by incorporation of radioligand into 8226 human myeloma cells at a concentration of 0.01 ug/mL
L1210 [26] = assay: Effect on DNA synthesis was determined by incorporation of radioligand into L1210 murine leukemia at a concentration of 1 ug/mL. (*: >50% cell kill); conditions: Mus musculus
RPMI-8226 [27] = assay: Effect on RNA synthesis was determined by incorporation of radioligand into 8226 human myeloma cells at a concentration of 1 ug/mL. (*: >50% cell kill)
P388 [28] = assay: Antileukemic activity against P-388/ADR (P-388 cells resistant to adriamycin) in mice at a dose of 44 mg/kg administered intraperitoneally after 3 day treatment(Trial 2); conditions: Mus musculus, P388, ip, 72 h, route intraperitoneal
P388 [29] = assay: Antileukemic activity against P-388 in mice at a dose of 100 mg/kg administered intraperitoneally after 3 day treatment(Trial 2); conditions: Mus musculus, P388, ip, 72 h, route intraperitoneal
P388 [30] = assay: Antileukemic activity against P-388/ADR (P-388 cells resistant to adriamycin) in mice at a dose of 100 mg/kg administered intraperitoneally after 3 day treatment(Trial 2); conditions: Mus musculus, P388, ip, 72 h, route intraperitoneal
P388 [31] = assay: Antileukemic activity against P-388/ADR (P-388 cells resistant to adriamycin) n mice at a dose of 67 mg/kg administered intraperitoneally after 3 day treatment(Trial 2); conditions: Mus musculus, P388, ip, 72 h, route intraperitoneal
P388 [32] = assay: Antileukemic activity against P-388 in mice at a dose of 30 mg/kg administered intraperitoneally after 3 day treatment(Trial 2); conditions: Mus musculus, P388, ip, 72 h, route intraperitoneal
P388 [33] = assay: Antileukemic activity against P-388 in mice at a dose of 44 mg/kg administered intraperitoneally after 3 day treatment; conditions: Mus musculus, P388, ip, 72 h, route intraperitoneal
P388 [34] = assay: Antileukemic activity against P-388 in mice at a dose of 44 mg/kg administered intraperitoneally after 3 day treatment(Trial 2); conditions: Mus musculus, P388, ip, 72 h, route intraperitoneal
P388 [35] = assay: Antileukemic activity against P-388 in mice at a dose of 67 mg/kg administered intraperitoneally after 3 day treatment; conditions: Mus musculus, P388, ip, 72 h, route intraperitoneal
P388 [36] = assay: Antileukemic activity against P-388 in mice at a dose of 125 mg/kg administered intraperitoneally after 3 day treatment; conditions: Mus musculus, P388, ip, 72 h, route intraperitoneal
P388 [37] = assay: Antileukemic activity against P-388 in mice at a dose of 67 mg/kg administered intraperitoneally after 3 day treatment(Trial 2); conditions: Mus musculus, P388, ip, 72 h, route intraperitoneal
P388 [38] = assay: Antileukemic activity against P-388 in mice at a dose of 100 mg/kg administered intraperitoneally after 3 day treatment; conditions: Mus musculus, P388, ip, 72 h, route intraperitoneal
P388 [39] = assay: Antileukemic activity against P-388/ADR (P-388 cells resistant to adriamycin) in mice at a dose of 30 mg/kg administered intraperitoneally after 3 day treatment(Trial 2); conditions: Mus musculus, P388, ip, 72 h, route intraperitoneal

SMILES: CN(C)CCCNCc1c2ccccc2c(CNCCCN(C)C)c2ccccc12
- IC50 [1]: 56.8 µM
- IC50 (RPMI-8226 [2]): 11 µM

SMILES: OCCCNCc1c2ccccc2c(CNCCCO)c2ccccc12
- IC50 [3]: 18.2 µM

SMILES: C(=N\NC1=NCCN1)/c1c2ccccc2c(/C=N/NC2=NCCN2)c2ccccc12 [BISANTRENE]
- inhibition at 10 µg/mL (RPMI-8226 [4]): 97.7%
- inhibition at 1 µg/mL (L1210 [5]): 48.5%
- inhibition at 10 µg/mL (L1210 [6]): 89%
- inhibition at 0.1 µg/mL (L1210 [7]): 24.1%
- inhibition at 0.1 µg/mL (RPMI-8226 [8]): 21%
- IC50 [3]: 2.4 µM
- inhibition at 1 µg/mL (RPMI-8226 [9]): 79.9%
- inhibition at 10 µg/mL (L1210 [10]): 66.8%
- inhibition at 0.01 µg/mL (L1210 [11]): 1.8%
- inhibition at 10 µg/mL (RPMI-8226 [12]): 63.5%
- inhibition at 0.01 µg/mL (RPMI-8226 [13]): 0%
- inhibition at 1 µg/mL (L1210 [14]): 21.7%
- IC50 [1]: 0.38 µM
- inhibition at 1 µg/mL (RPMI-8226 [15]): 41.9%
- inhibition at 10 µg/mL (RPMI-8226 [16]): 92.9%
- inhibition at 0.1 µg/mL (RPMI-8226 [17]): 20.2%
- inhibition at 0.1 µg/mL (RPMI-8226 [18]): 33.3%
- inhibition at 0.1 µg/mL (L1210 [19]): 9.3%
- inhibition at 0.01 µg/mL (L1210 [20]): 0%
- IC50 (WiDr): 0.44 µM
- inhibition at 0.01 µg/mL (RPMI-8226 [21]): 0%
- IC50 (RPMI-8226 [2]): 0.23 µM
- inhibition at 10 µg/mL (L1210 [22]): 96.1%
- inhibition at 0.01 µg/mL (L1210 [23]): 0%
- inhibition at 0.1 µg/mL (L1210 [24]): 5.6%
- inhibition at 0.01 µg/mL (RPMI-8226 [25]): 0%
- inhibition at 1 µg/mL (L1210 [26]): 43.6%
- inhibition at 1 µg/mL (RPMI-8226 [27]): 91.6%

SMILES: c1ccc2c(CNCCN3CCOCC3)c3ccccc3c(CNCCN3CCOCC3)c2c1
- ILS at 44 mg/kg (P388 [28]): 15%
- IC50 [3]: 0.03 µM
- ILS at 100 mg/kg (P388 [29]): 9%
- ILS at 100 mg/kg (P388 [30]): 40%
- ILS at 67 mg/kg (P388 [31]): 15%
- ILS at 30 mg/kg (P388 [32]): 4%
- ILS at 44 mg/kg (P388 [33]): 28%
- ILS at 44 mg/kg (P388 [34]): -5%
- ILS at 67 mg/kg (P388 [35]): 33%
- ILS at 125 mg/kg (P388 [36]): -81%
- ILS at 67 mg/kg (P388 [37]): 9%
- IC50 (WiDr): 0.02 µM
- IC50 (RPMI-8226 [2]): 0.02 µM
- ILS at 100 mg/kg (P388 [38]): -34%
- ILS at 30 mg/kg (P388 [39]): 5%

SMILES: CC(C)N(CCNCc1c2ccccc2c(CNCCN(C(C)C)C(C)C)c2ccccc12)C(C)C
- IC50 (WiDr): 15.5 µM
- IC50 (RPMI-8226 [2]): 7.63 µM

SMILES: c1ccc2c(CC3=NCCN3)c3ccccc3c(CC3=NCCN3)c2c1
- IC50 [3]: 4.36 µM
- IC50 [1]: 5.6 µM

SMILES: NCCN(CCO)Cc1c2ccccc2c(CN(CCN)CCO)c2ccccc12
- IC50 [3]: 5.76 µM
- IC50 (WiDr): 5.04 µM

Now from value to compound, other results behind:

- IC50 (RPMI-8226 [2]): 27.8 µM
SMILES: OCCNCc1c2ccccc2c(CNCCO)c2ccccc12
- IC50 [3]: 74.9 µM

- IC50 (RPMI-8226 [2]): 4.67 µM
SMILES: OCCCCCNCc1c2ccccc2c(CNCCCCCO)c2ccccc12
- IC50 [3]: 24.7 µM
- IC50 (WiDr): 13.4 µM

- IC50 (RPMI-8226 [2]): 0.29 µM
SMILES: CN(C)CCN(C)Cc1c2ccccc2c(CN(C)CCN(C)C)c2ccccc12
- IC50 [3]: 0.7 µM
- IC50 (WiDr): 0.14 µM

- IC50 (RPMI-8226 [2]): 692 µM
SMILES: NCCNCc1c2ccccc2c(CNCCN)c2ccccc12
- IC50 [3]: 4.14 µM
- IC50 (WiDr): 0.42 µM

- IC50 (RPMI-8226 [2]): 0.04 µM
SMILES: CCN1CCCC(NCc2c3ccccc3c(CNC3CCCN(CC)C3)c3ccccc23)C1 (configuration not stated)
- IC50 (WiDr): 5.63 µM

- IC50 (RPMI-8226 [2]): 0.23 µM
SMILES: OCCOCCNCc1c2ccccc2c(CNCCOCCO)c2ccccc12
- IC50 [3]: 6.57 µM
- IC50 (WiDr): 2.91 µM

- IC50 (RPMI-8226 [2]): 0.1 µM
SMILES: CN1CCN(Cc2c3ccccc3c(CN3CCN(C)CC3)c3ccccc23)CC1
- IC50 (WiDr): 10.4 µM

- IC50 (RPMI-8226 [2]): 3.51 µM
SMILES: CNCCN(C)Cc1c2ccccc2c(CN(C)CCNC)c2ccccc12
- IC50 [3]: 3.42 µM
- IC50 (WiDr): 1.93 µM

- IC50 (RPMI-8226 [2]): 6.26 µM
SMILES: C(=N\Nc1nccs1)/c1c2ccccc2c(/C=N/Nc2nccs2)c2ccccc12
- IC50 [3]: 8.8 µM
- IC50 [1]: 200 µM
- IC50 (WiDr): 5.9 µM
